Patent publication US8530521B2, “Nitrooxy cycloalkane derivatives” (Merck Sharp & Dohme Corp., priority 2008, dated 2013)

System: isolated rabbit thoracic aorta preparations
Experiment: Vessel relaxation in isolated rabbit thoracic aorta rings precontracted with noradrenaline
Settings: for EC50: Oryctolagus cuniculus

| Compound | EC50 [µM] | Max. Relaxation (concentration not given) [%] | Max. Relaxation (@ 1 μM) [%] |
| --- | --- | --- | --- |
| COC(=O)[C@@H]1CC[C@@H](OC)[C@H](O[N+](=O)[O-])C1 [Example 24, (1R,3R,4R)-methyl 4-methoxy-3-(nitrooxy)cyclohexanecarboxylate] | 11.1 ± 4.5 | – | – |
| CC(=O)N[C@H](C(=O)O)C(C)(C)SN=O (racemic) [SNAP, S-nitroso-N-acetylpenicillamine, reference compound] | – | 97.3 | – |
| COC(=O)[C@@H]1CC[C@@H](O[N+](=O)[O-])[C@H](OC)C1 [Example 22, (1R,3R,4R)-methyl 3-methoxy-4-(nitrooxy)cyclohexanecarboxylate] | 6.3 ± 2 | – | – |
| CO[C@H]1C[C@@H](C(=O)O)C[C@@H]1O[N+](=O)[O-] [Example 1, (+)-(1R,3S,4S)-3-methoxy-4-(nitrooxy)cyclopentanecarboxylic acid] | 126 | – | 37.47 |

Further lines, with some results ahead:

| EC50 [µM] | Compound | Max. Relaxation (concentration not given) [%] | Max. Relaxation (@ 1 μM) [%] |
| --- | --- | --- | --- |
| 3.5 ± 0.6 | COC(=O)[C@@H]1CC[C@H](O[N+](=O)[O-])[C@@H](OC)C1 [Example 23, (1R,3S,4S)-methyl 3-methoxy-4-(nitrooxy)cyclohexanecarboxylate] | – | – |
| 1 ± 0.2 | COC(=O)[C@@H]1CC[C@H](OC)[C@@H](O[N+](=O)[O-])C1 [Example 21, (1R,3S,4S)-methyl 4-methoxy-3-(nitrooxy)cyclohexanecarboxylate] | – | – |
